What was measured:
Details in all cases: human
[1] = test system: HER2 positive HCC1954 cells
[2] = test system: HER2 positive NCI/ADR-RES cells (NCI/ADR-RES-HER2+)
[3] = test system: HER2 positive JIMT-1 cells
HCC1569 cells = test system: HCC1569 cells
NCI-N87 cells = test system: NCI-N87 cells

CS(=O)(=O)CCNCc1ccc(-c2ccc3ncnc(Nc4ccc(OCc5cccc(F)c5)c(Cl)c4)c3c2)o1 [lapatinib]
In Vitro Cytotoxicity CD50, HCC1954 [1]: 786 nM
In Vitro Cytotoxicity CD50, NCI/ADR-RES-HER2+ [2]: 2,704 nM
In Vitro Cytotoxicity CD50, JIMT-1 [3]: 5,650 nM
In Vitro Cytotoxicity CD50, HCC1569 (HCC1569 cells): 885 nM
In Vitro Cytotoxicity CD50, NCI-N87 (NCI-N87 cells): 112 nM

— patent US20230331785A1 (priority 2018, published 2023)
